Assay results from patent US20200262991A1, “Method for Tuning Topology of Polymer Particles” (UNIVERSITY OF SOUTH CAROLINA, priority 2019, published 2020).

System: 3T3-L1 adipocytes
Assay: Oil Red O lipid content assay in differentiated 3T3-L1 adipocytes
Assay type: cell-based, mouse
Conditions: 60 μM free resveratrol dissolved in ethanol, 48 hours
Method: 3T3-L1 fibroblasts (ATCC), were differentiated into adipocytes following ATCC's protocol, with slight modifications. Briefly, 3T3-L1 cells were seeded in 6 well plates at 80,000 cells/well and cultured in DMEM supplemented with 10% SuperCalf Serum and 1% Pen/Strep. 48 hours after confluence was reached, media was exchanged with “differentiation media” consisting of DMEM supplemented with 10% FBS, 10 μg/mL bovine insulin, 0.25 μM dexamethasone, and 0.5 mM IBMX. 48 hours after differentiation media was added, media was exchanged for DMEM supplemented with 10% FBS and 10 μg/mL bovine insulin. After another 48 hours, media was exchanged for DMEM supplemented with 10% FBS. Cells were then cultured until treatment with particles, which occurred 9 days after exposure to the differentiation media. […] Absorbance of extracted Oil Red O was measured at 500 nm using a spectrophotometer. Bioactivity of the resveratrol following the fabrication process was determined. Specifically, the ability of the resveratrol particles to induce lipolysis in differentiated 3T3-L1 adipocytes was determined by measuring lipid content with an Oil Red O assay. […] Lipid content was visualized with Oil Red O, a lipophilic dye, (FIG. 3 at A-F) and lipid content was quantified by extracting the dye (FIG. 3 at G) and measuring the solution's absorbance (FIG. 3 at H).

In the case of `Oc1ccc(/C=C/c2cc(O)cc(O)c2)cc1` [resveratrol, 3,5,4′-trihydroxy-trans-stilbene], the “Oil Red O staining (intracellular lipid content)” value is reported as “decreased Oil Red O staining”.
